{"source": "PubChem BioAssay AID1083", "about": "(University of Pittsburgh Molecular Library Screening Center, 2008)", "note": "Where “and” joins values, the source holds several entries; their conditions need not be identical. Equal entries are not always repeated. Calls of active or inactive are those of the source. No rule for the calls is given here."}
{"target": "Serine/threonine-protein kinase PLK1 (Homo sapiens) (UniProt P53350)", "sequence (P53350 whole entry, looked up, the tested form may be a part)": "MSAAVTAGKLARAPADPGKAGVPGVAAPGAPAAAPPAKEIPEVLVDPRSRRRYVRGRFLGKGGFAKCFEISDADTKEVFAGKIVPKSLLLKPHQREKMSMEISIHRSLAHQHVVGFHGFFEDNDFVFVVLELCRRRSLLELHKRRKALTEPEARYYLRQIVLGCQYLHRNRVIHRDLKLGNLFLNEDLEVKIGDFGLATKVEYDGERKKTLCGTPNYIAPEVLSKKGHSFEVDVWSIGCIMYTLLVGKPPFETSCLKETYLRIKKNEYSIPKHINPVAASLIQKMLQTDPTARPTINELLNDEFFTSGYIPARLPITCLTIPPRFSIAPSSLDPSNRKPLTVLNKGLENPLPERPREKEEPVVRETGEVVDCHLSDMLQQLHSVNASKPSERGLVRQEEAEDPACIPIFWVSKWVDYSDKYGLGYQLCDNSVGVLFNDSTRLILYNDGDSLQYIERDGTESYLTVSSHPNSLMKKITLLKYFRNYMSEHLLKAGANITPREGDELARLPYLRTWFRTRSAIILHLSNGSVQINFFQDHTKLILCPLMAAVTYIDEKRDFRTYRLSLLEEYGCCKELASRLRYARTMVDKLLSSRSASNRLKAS", "assay": "PLK1 polo-box domain peptide-binding inhibitors, SAR follow-up, biochemical, fluorescence polarization, purchased analogs, concentration response (AID 1083)", "details": "Plk1 PBD peptide binding"}
{"smiles": "CCn1nc(-c2ccc(C)cc2)nc2c(=O)n(C)c(=O)nc1-2", "IC50": "0.932 µM"}
{"smiles": "CCOC(=O)c1ccc(NC(=O)c2cc3ccccc3oc2=O)cc1", "IC50": "> 50 µM (inactive)"}
{"smiles": "CCOC(=O)N1CCN(c2cc3nccnc3cc2F)CC1", "IC50": "> 50 µM (inactive)"}
{"smiles": "COc1cc(C=C2C(=O)NC(=O)NC2=O)ccc1OCc1ccc(Cl)cc1Cl", "IC50": "> 50 µM (inactive)"}
{"smiles": "COc1ccc(-c2nc3c(=O)n(C)c(=O)nc-3n(C)n2)cc1OC", "IC50": "0.295 µM"}
{"smiles": "CCOC(=O)c1ccc(NC(=O)c2c(C)cc(=O)oc2C)cc1", "IC50": "> 50 µM (inactive)"}
{"smiles": "CCOC(=O)c1ccc(N=Cc2c(O)[nH]c(=O)[nH]c2=O)cc1", "IC50": "> 50 µM (inactive)"}
{"smiles": "CCN(CC)CCOC(=O)c1ccc(N=Cc2c(O)n(-c3c(C)cc(C)cc3C)c(=O)[nH]c2=O)cc1", "IC50": "> 50 µM (inactive)"}
{"smiles": "CCn1nc(-c2ccc(C(=O)OC)cc2)nc2c(=O)n(C)c(=O)nc1-2", "IC50": "0.488 µM"}
{"smiles": "CCCCCCC(=O)N(CN1C(=O)c2ccccc2C1=O)c1ccccc1OC", "IC50": "> 50 µM (inactive)"}
{"smiles": "CCOC(=O)c1ccc(NC(=O)C2CCCCC2C(=O)O)cc1", "note": "(stereo not given)", "IC50": "> 50 µM (inactive)"}
{"smiles": "CCn1nc(-c2ccc(C(F)(F)F)cc2)nc2c(=O)n(C)c(=O)nc1-2", "IC50": "0.552 µM"}
{"smiles": "CCCCCOC(=O)c1ccc(NC(=O)c2ccc([N+](=O)[O-])cc2)cc1", "IC50": "> 50 µM (inactive)"}
{"smiles": "COc1cc(Br)cc(C=C2C(=O)NC(=O)NC2=O)c1O", "IC50": "> 50 µM (inactive)"}
{"smiles": "CCOC(=O)c1ccc(NC(=O)C2Cc3ccccc3C(=O)O2)cc1", "note": "(stereo not given)", "IC50": "> 50 µM (inactive)"}
{"smiles": "CC(=O)c1ccc(N(CN2C(=O)c3ccc([N+](=O)[O-])cc3C2=O)C(C)=O)cc1", "IC50": "> 50 µM (inactive)"}
{"smiles": "CC(=O)N(/N=C1\\Sc2ccccc2C1=O)c1ccccc1C", "IC50": "37.4 µM"}
{"smiles": "Cn1c(=O)c2nc(-c3ccccc3)c(=O)[nH]c2n(C)c1=O", "IC50": "> 50 µM (inactive)"}
{"smiles": "CCOC(=O)c1ccc(N=Cc2c(O)n(C3CCCCC3)c(=O)n(C3CCCCC3)c2=O)cc1", "IC50": "> 50 µM (inactive)"}
{"smiles": "CCOC(=O)c1ccc(NC(=O)c2cncc(Br)c2)cc1", "IC50": "> 50 µM (inactive)"}
{"smiles": "CC(=O)N(/N=C1\\Sc2ccccc2C1=O)c1cccc(Br)c1", "IC50": "20.9 µM"}
{"smiles": "Cn1c(=O)[nH]c(=O)c2nc(-c3ccccc3)c(-c3ccccc3)nc21", "IC50": "> 50 µM (inactive)"}
{"smiles": "CC(=O)Oc1c(Cl)c(N2CCOCC2)c(OC(C)=O)c2ccccc12", "IC50": "> 50 µM (inactive)"}
{"smiles": "CCn1nc(-c2ccccc2Br)nc2c(=O)n(C)c(=O)nc1-2", "IC50": "1.35 µM"}
{"smiles": "COc1ccc(C(=O)COC(=O)c2ccc(NC(=O)c3ccccc3)cc2)cc1", "IC50": "> 50 µM (inactive)"}
{"smiles": "CCCCCC(=O)N(CN1C(=O)c2ccccc2C1=O)c1ccccc1OC", "IC50": "> 50 µM (inactive)"}
{"smiles": "CC(=O)N(CN1C(=O)c2ccccc2C1=O)c1ccc(Br)cc1", "IC50": "> 50 µM (inactive)"}
{"smiles": "CCc1ccc(-c2nc3c(=O)n(C)c(=O)nc-3n(CC)n2)cc1", "IC50": "0.786 µM and > 50 µM (inactive)"}
{"smiles": "CC(=O)N(CN1C(=O)c2ccccc2C1=O)c1cccc(C)c1", "IC50": "> 50 µM (inactive)"}
{"smiles": "CC(=O)N(/N=C1\\Sc2ccccc2C1=O)c1ccccc1I", "IC50": "> 50 µM (inactive)"}
{"smiles": "Cc1ccccc1-c1nc2c(=O)n(C)c(=O)nc-2n(C)n1", "IC50": "1.68 µM and 4.03 µM"}
{"smiles": "CCOC(=O)c1ccc(NC(=O)C2OCCc3ccccc32)cc1", "note": "(stereo not given)", "IC50": "> 50 µM (inactive)"}
{"smiles": "COC(=O)c1ccc(N(/N=C2\\Sc3ccccc3C2=O)C(C)=O)cc1", "IC50": "13.9 µM"}
{"smiles": "CCOC(=O)c1ccc(N=Cc2c(O)n(Cc3cccs3)c(=O)[nH]c2=O)cc1", "IC50": "> 50 µM (inactive)"}
{"smiles": "CC(=O)N(CN1C(=O)c2ccccc2C1=O)c1ccccc1Cl", "IC50": "> 50 µM (inactive)"}
{"smiles": "CCCCCC(=O)N(CN1C(=O)c2ccccc2C1=O)c1cccc(C(=O)O)c1", "IC50": "> 50 µM (inactive)"}
{"smiles": "CC(=O)Oc1ccccc1N(/C=C1/Sc2ccccc2C1=O)C(C)=O", "IC50": "> 50 µM (inactive)"}
{"smiles": "COc1ccccc1N(/C=C1\\Sc2ccccc2C1=O)C(C)=O", "IC50": "> 50 µM (inactive)"}
{"smiles": "CCOC(=O)c1ccc(NC(=O)C2CCC(C(C)(C)C)CC2)cc1", "note": "(stereo not given)", "IC50": "> 50 µM (inactive)"}
{"smiles": "CCn1nc(-c2ccc([N+](=O)[O-])cc2)nc2c(=O)n(C)c(=O)nc1-2", "IC50": "0.571 µM"}
{"smiles": "Cn1nc(-c2ccccc2)nc2c(=O)n(C)c(=O)nc1-2", "IC50": "1.45 µM"}
{"smiles": "CCCCOC(=O)c1ccc(NC(=O)c2cc(OCC)c(OCC)c(OCC)c2)cc1", "IC50": "> 50 µM (inactive)"}
{"smiles": "Cc1ccc(N(CN2C(=O)c3ccc([N+](=O)[O-])cc3C2=O)C(=O)C(c2ccccc2)c2ccccc2)cc1", "IC50": "> 50 µM (inactive)"}
{"smiles": "Cn1c(=O)c2nc(-c3ccccc3)c(-c3ccccc3)nc2n(C)c1=O", "IC50": "> 50 µM (inactive)"}
{"smiles": "Cn1c(=O)[nH]c2nnc(-c3ccc4c(c3)OCO4)nc2c1=O", "IC50": "> 50 µM (inactive) and 4.91 µM"}
{"smiles": "CC(=O)N(/N=C1\\Sc2ccccc2C1=O)c1ccc(Br)cc1", "IC50": "45.8 µM"}
{"smiles": "O=c1cc[nH]c2cc(N3CCOCC3)c(F)cc12", "IC50": "> 50 µM (inactive)"}
{"smiles": "CC(=O)N(/C=C1\\Sc2ccccc2C1=O)c1cccc(C)c1", "IC50": "> 50 µM (inactive)"}
{"smiles": "COc1ccc(N(/C=C2\\Sc3ccccc3C2=O)C(C)=O)cc1", "IC50": "> 50 µM (inactive)"}
{"smiles": "CC(=O)N(/N=C1\\Sc2ccccc2C1=O)c1cc(C)ccc1C", "IC50": "> 50 µM (inactive)"}
